In patent EP1660884B1, “CROWN ETHER DERIVATIVES” (Life Technologies Corporation, priority 2003, dated 2005):
Entries after “also recorded” stand apart in the source; their conditions may differ.

Test system: Jurkat cells
Experiment: Calibration of sodium indicator fluorescence response in cells (flow cytometry)
Type: cell-based
Conditions: Jurkat cells loaded with 5 µM for 30 minutes at 37 °C, 2 µM gramicidin, extracellular Na+ 0-145 mM, excitation at 488 nm
Experimental: Example 3: Calibration of sodium indicator fluorescence response in cells.
Jurkat cells were loaded with a 5 µM solution of either Compound 25 (a compound according to Formula (I) as shown below), or commercially available SODIUM GREEN tetraacetate indicator (Molecular Probes, Inc., Eugene, OR) and 10 µM for Compound 87 (Example 9) for 30 minutes at 37 °C. The use of PLURONIC dispersing agent helped dissolve the selected indicator. Intracellular sodium concentrations were then established by varying the sodium concentration of the extracellular buffer in the presence of 2 µM gramicidin (a sodium-pore forming antibiotic). The extracellular buffer was set at 0 mM, 10 mM, 20 mM, 50 mM, 100 mM, and 145 mM, respectively. Intracellular fluorescence response of the selected indicators was measured using a FACSCAN flow cytometer and associated software, with fluorescence excitation at 488 nm.

SMILES: CC(=O)OCOC(=O)CN1CCOCCN(CC(=O)OCOC(C)=O)c2ccc(-c3c4cc(F)c(=O)cc-4oc4cc(OCOC(C)=O)c(F)cc34)cc2OCCOc2cc(C)ccc21 [Compound 25]
- intracellular fluorescence intensity as intracellular Na^+ concentration was increased: consistent increase in fluorescence intensity
- intracellular fluorescence intensity compared with SODIUM GREEN indicator (Figure 3): substantially brighter intracellular fluorescence intensity than the SODIUM GREEN indicator; also recorded: stronger fluorescence intensity than SODIUM GREEN sodium indicator
